According to patent publication US10548935B2, “Composition and method for preventing, reducing, alleviating or treating idiopathic vomiting” (Mars, Incorporated, priority 2013, dated 2020):

What was measured:
h5HT3A receptor = molecular target: T1, h5HT3A receptor (Homo sapiens, UniProt P46098); experiment: Assays for screening 5-HT3a receptor inhibitors (FLIPR calcium assay or aequorin-assisted serotonin receptor assay; dosage response curves); assay type: cell-based
T1 construct: expressed in transfected cells
T1 sequence (P46098 24-478): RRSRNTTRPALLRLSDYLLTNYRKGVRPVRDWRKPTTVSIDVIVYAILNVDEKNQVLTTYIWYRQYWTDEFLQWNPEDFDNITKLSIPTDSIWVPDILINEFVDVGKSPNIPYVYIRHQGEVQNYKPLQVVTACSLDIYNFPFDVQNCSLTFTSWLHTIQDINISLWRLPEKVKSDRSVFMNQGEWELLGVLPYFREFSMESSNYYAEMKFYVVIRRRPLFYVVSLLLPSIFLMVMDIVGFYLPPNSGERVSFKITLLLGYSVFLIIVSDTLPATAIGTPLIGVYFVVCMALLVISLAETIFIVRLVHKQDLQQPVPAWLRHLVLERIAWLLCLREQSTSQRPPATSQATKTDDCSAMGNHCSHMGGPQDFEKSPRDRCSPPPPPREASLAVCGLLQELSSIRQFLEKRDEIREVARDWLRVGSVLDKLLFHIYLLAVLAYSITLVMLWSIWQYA
Description: Various known high through-put screening assays can be used to determine the inhibitory effects of a material on the 5-HT3a receptors.
Due to activation of 5HT3 receptor following calcium and sodium influx and the subsequent rapid intracellular calcium and sodium increase, a calcium indicator (e.g., Fluo-4 AM) or a sodium dye can therefore be readily used to detect influx Ca^+2 or Na^+ signal using the Flourometric Imaging Plate Reader (FLIPR) assay to identify agonists or antagonists of 5-HT3a receptors.
The 5-HT3a FLIPR assay can specifically be conducted by the following steps. First, […] (human embryonic kidney) cells stably expressed with h5HT3A receptor are grown in 16-18 ml growth medium in a 75 cm^2 flask for 2-3 days at 37° C. in a mammalian cell culture incubator with 5% CO2 and 90% humidity. The growth medium may contain, for example, DMEM/F12 (1:1, Invitrogen 11039) supplemented with 10% FBS (fetal bovine serum), 100 μg/ml Antibiotic/Antimycotic, and 150 ug/ml G418. The cell medium is then transferred to a 50 ml tube, and the cells are washed with 10 ml PBS. Subsequently, 2 ml of 0.05% Trypsin-EDTA is added to detach cells, and the above cell medium is added back to flask to inactivate trypsin. Next, the cells are transferred back to the above 50 ml tube, which is centrifuged at 850 rpm for 3 minutes to remove medium. The cells obtained from centrifugation are then re-suspended with growth medium at 1-1.5 ml per flask cells. One vial of Fluo-4 AM (calcium indicator, 50 ug) is subsequently dissolved with 20 ul of Pluronic F-127, and 10 ul of Fluo-4 AM solution per flask cells is added (1 vial of Fluo-4 AM solution, 20 ul, is good for 2 flask of cells). The cells are then stained with Fluo-4 AM for 30 min at room temperature with gently shaking on a shaker, followed by addition of 45 ml of the assay buffer [HBSS with CaCl2 and MgCl2 (Invitrogen 14025), 20 mM HEPES, pH7.2] to wash cells once. Centrifugation is carried out once more at 850 rpm for 3 minutes to remove assay buffer. The resulting cell pellet is again re-suspended in Assay buffer (per flask cells with 18-20 ml assay buffer). Ninety microliters of cells (50K cells/well) is loaded in the 96-well plates that are pre-loaded with the compounds to be tested (10 ul of 1 mM test materials, the final concentration of the test materials will be 100 uM). The plates are placed at room temperature for 15-30 min in dark and then transferred to FLIPR-384 instrument (Molecular Devices). […] The calcium signal of the test plates is finally recorded by the FLIPR program. The average and standard deviations are calculated using Excel, and the background (buffer) is subtracted. The percentage (%) inhibition is then calculated as
[formula] A test material will be considered as having an inhibitory effect against the 5-HT3a receptor if the percentage inhibition calculated is greater than 40%.
Aequorin is a photo-protein originating from the Jellyfish Aequorea Victoria. It is initially translated as an apo-enzyme requiring the hydrophobic group coelenterazine to initiate the conversion to aequorin. Upon binding of calcium, the coelenterazine is oxidized by aequorin into coelenteramide (BFP) resulting in the emission of blue light and CO2. Therefore, it is particularly useful for visualizing or detecting influx Ca^+2 signal.
After 18-24 h of culture, the cells are detached gently by flushing with their cell culture medium. Washing with an additional 10 mLs of cell culture media will ensure that optimum number of cells is captured. The cells are then centrifuged at 150×g, counted and re-suspended at 1×10^6 cells/mL in BSA medium [DMEM/Ham's F12 (with 15 mM HEPES, L-glutamine, without phenol red) culture medium (Invitrogen, Cat. No. 11039-021)+10% protease-free BSA (Sigma Aldrich, Cat. No. A9205) in H2O with a final BSA concentration of 0.1%] in a Falcon tube. Coelenterazine is added at a final concentration of 5 μM in assay medium.

NK-1 receptor = molecular target: T2, NK-1 receptor (Homo sapiens, UniProt P25103); experiment: Tango GPCR cell-based assay, TACR1-bla U2OS cells, NK-1 receptor inhibitors; conditions: 1 nM SAR9 Substance P agonist
T2 construct: host or cells: U2OS (Tango TACR1-bla)
T2 sequence (P25103 whole entry): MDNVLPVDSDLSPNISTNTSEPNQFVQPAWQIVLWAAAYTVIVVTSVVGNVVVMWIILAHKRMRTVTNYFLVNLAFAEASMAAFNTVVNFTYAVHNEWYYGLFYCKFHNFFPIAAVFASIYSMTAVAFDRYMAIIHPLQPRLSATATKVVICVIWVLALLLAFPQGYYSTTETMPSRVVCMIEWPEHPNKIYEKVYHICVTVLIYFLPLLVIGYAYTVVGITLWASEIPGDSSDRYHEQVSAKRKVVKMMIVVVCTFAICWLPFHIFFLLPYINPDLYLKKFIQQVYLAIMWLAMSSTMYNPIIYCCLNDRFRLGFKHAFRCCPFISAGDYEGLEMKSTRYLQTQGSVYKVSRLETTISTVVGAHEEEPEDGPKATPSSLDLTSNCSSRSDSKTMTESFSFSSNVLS
Method: Various known high through-put screening assays can also be used to determine the inhibitory effects of a material on the NK-1 receptors.
One exemplary assay is the Tango™ G-Protein Coupled Receptors (GPCR) cell-based assays by Invitrogen. First, TACR1-bla U2OS cells (from Invitrogen) are cultured in McCoy's medium. The cultured cells are then plated in DMEM into 96-well plates (15,125 cells/well in 90 uL/well). After 16-24 hours, the cells are treated with test materials or positive control antagonist (which is 100 nM Aprepitant) and then incubated for 30-60 minutes at 37° C. in 5% CO2. Subsequently, the cells are treated with 1 nM SAR9 Substance P agonist and incubated again for 5 hours at 37° C. in 5% CO2. The plates are removed from the incubator and equilibrated at room temperature for 15 minutes. During the equilibration step, the LiveBlazer substrate detection solution (from Invitrogen) is prepared. Six times of substrate mixture is added to each well, followed by incubating the plates in the dark at room temp for 2 hours. The plates are read by the Envision microplate reader in 2 channels using the “Geneblazer 451” protocol, which include a blue channel (Excitement at 405 and Emission at 460) and a green channel (Excitement at 405 and Emission at 535).
FIGS. 45-70 show the NK-1 dosage response curves of compounds described hereinabove with high NK-1 inhibitory effect.

Row | 5-HT3a receptor inhibitory effect (h5HT3A receptor) | NK-1 receptor inhibitory effect (NK-1 receptor) | Structure (SMILES) | cell toxicity (Cell toxicity)
1 | surprisingly high | surprisingly high | C[C@H]1[C@H](C)CC[C@]2(C(=O)O)CC[C@]3(C)C(=CC[C@@H]4[C@@]5(C)C[C@@H](O)[C@H](O)[C@@](C)(CO)[C@@H]5CC[C@]43C)[C@H]12 [Asiatic acid] | little or no
2 | surprisingly high | surprisingly high | O=c1c(O)c(-c2ccccc2)oc2ccc(O)cc12 [3,6-Dihydroxyflavone] | little or no
3 | – | surprisingly high | CC/C=C/C=C/C=O [Trans,trans-2,4-heptadienal] | little or no
4 | surprisingly high | surprisingly high | CCCCCCCCCCCCCCCC(=O)OC(CC(=O)O)C[N+](C)(C)C.[Cl-] (racemic) [DL-palmitoylcarnitine chloride] | little or no
5 | surprisingly high | surprisingly high | O=c1cc(-c2ccc(O)c(O)c2)oc2cc(O)cc(O)c12 [Luteolin] | little or no
6 | – | surprisingly high | c1ccc2c(Cc3c[nH]c4ccccc34)c[nH]c2c1 [3,3′-diindolylmethane] | little or no
7 | – | surprisingly high | CC1=CC(=O)c2ccccc2C1=O [Menadione] | little or no
8 | surprisingly high | surprisingly high | Oc1ccc(C=Cc2cc(O)cc(O)c2)cc1 [Resveratrol] | –
9 | – | surprisingly high | O=C(/C=C/c1ccccc1)c1ccccc1 [Chalcone] | little or no
10 | surprisingly high | surprisingly high | COc1cc(/C=C/C(=O)CC(=O)/C=C/c2ccc(O)c(OC)c2)ccc1O [Curcumin] | –
11 | – | surprisingly high | CCCCCCCCCCCCCC[C@@H](O)[C@@H](O)[C@@H](N)CO [Phytosphingosine] | little or no
12 | surprisingly high | surprisingly high | CC1(C)[C@@H](O)CC[C@]2(C)[C@H]3C(=O)C=C4[C@@H]5C[C@@](C)(C(=O)O)CC[C@]5(C)CC[C@@]4(C)[C@]3(C)CC[C@@H]12 [18-Beta-glycyrrhetic acid] | little or no
13 | – | surprisingly high | CCCC/C=C/C=C/C=O [Trans,trans-2,4-nonadienal] | little or no
14 | surprisingly high | surprisingly high | O=C(/C=C/c1ccc(O)cc1)c1ccccc1 [4-Hydroxychalcone] | little or no
15 | – | surprisingly high | O=c1c(-c2ccc(O)cc2)coc2cc(O)cc(O)c12 [Genistein] | little or no

Row | Structure (SMILES) | 5-HT3a receptor inhibitory effect (h5HT3A receptor) | NK-1 receptor inhibitory effect (NK-1 receptor) | cell toxicity (Cell toxicity)
16 | COC1=C(OC)C(=O)C(C)=CC1=O [Ubiquinone-O] | surprisingly high | surprisingly high | little or no
